Laboratory results reported in US20100291230A1 (priority 2006, published 2010).
Several values for one entry are separate records, joined by “and”; a condition that tells them apart may be missing. Identical values can stand only once.

Assays:
Settings in all cases: in vivo
Meloidogyne javanica = test system: Meloidogyne javanica
[1] = test system: nematode inoculum (eggs and larvae) in soil; design: species or system Meloidogyne javanica
[2] = test system: root-knot nematodes Meloidogyne javanica

N[C@@H](CC(=O)O)C(=O)O [Aspartic acid]
reduction of galling infection (Meloidogyne javanica): most effective

N[C@@H](CS)C(=O)O [Cysteine]
reduction of galling infection (Meloidogyne javanica): most effective

NCCCC[C@H](N)C(=O)O [Lysine]
reduction of galling infection (Meloidogyne javanica): most effective

CBr [Methyl Bromide]
control of nematode infection in the roots [1]: highly effective in controlling nematode infection in the roots

O=[PH](O)O [phosphite, H3PO3]
galling incidence and galling index (nematode control) (Meloidogyne javanica): higher efficacy in controlling nematodes as compared with urea

OP(O)O [phosphorous acid]
galling incidence [2]: 20% and 10%
